Measurements: patent US20130115256A1, “METHODS FOR TREATING OR PREVENTING VASCULAR GRAFT FAILURE” (priority 2010, published 2013)

Assays:
[1] = tested on: immortalized human pleural mesothelial cells (ATCC CRL-9444); experiment: TNF-α-induced IL-6 expression in mesothelial cells (ELISA); format: cell-based
Description: In order to examine the efficacy of MMI-0100 ([…]; SEQ ID NO: 1) in inhibiting the production of inflammatory cytokines, an inflammatory response was triggered in vitro by applying TNF-α to immortalized human pleural mesothelial cells (ATCC CRL-9444). A mesothelial cell is a cell type that forms a monolayer of specialized pavement-like cells (mesothelium) that lines the body's abdominal cavities and internal organs. The primary function of this layer, the mesothelium, is to provide a slippery, non-adhesive, and protective surface. Mesothelial cells also are involved in transport of fluid and cells across the peritoneal (abdominal) cavities, antigen presentation, inflammation, tissue repair, coagulation, and tumor cell adhesion. It is well known that mesothelial cells play important role in the peritoneal inflammatory response. In response to bacterial products and macrophage-derived inflammatory cytokines (e.g., TNF-α), mesothelial cells produce Interleukin-1 (IL-1), Interleukin-6 (IL-6), and Interleukin-8 (IL-8), thus amplifying the inflammatory signals and recruiting leukocytes into the infected abdominal cavity.
Expression of inflammatory cytokines was induced by applying 1 or 10 ng/ml of TNF-α to cultured mesothelial cells. Briefly, immortalized human pleural mesothelial cells (ATCC CRL-9444) were grown in Medium199 with Earle's BSS, 0.75 mM L-glutamine (Mediatech Inc., Manassas, Va.), 1.25 g/l sodium bicarbonate (Sigma), 3.3 nM epidermal growth factor (EGF) (MBL International, Woburn, Mass.), 40 nM hydrocortisone (Sigma), 870 nM insulin (MBL International), 20 mM HEPES (Sigma), trace elements mixture B (Mediatech Inc., Waltham, Mass.), 10% fetal bovine serum (FBS) (Hyclone), and 1% penicillin/streptomycin (Mediatech Inc., Waltham, Mass.). […] Human mesothelial cells were treated with two different concentrations (1 and 10 ng/mL) of TNF-α for 2, 6, 12, and 24 hours (data not shown). […] Without TNF-α stimulation, mesothelial cells made negligible amounts of IL-6. […] In subsequent experiments designed to determine whether the MMI-0100 peptide ([…]; SEQ ID NO: 1) could reduce TNF-α induced IL-6 expression, both 1 and 10 ng/mL of TNF-α were selected as stimuli. 10 ng/mL of TNF-α is regarded as more physiologically relevant for mesothelial cells.
Prior to cytokine and/or inhibitor treatment, cells were allowed to acclimate in serum-free media consisting of only Medium 199 with Earle's BSS, 0.75 mM L-glutamine, 1.25 g/l sodium bicarbonate, 20 mM HEPES, trace elements mixture B (Mediatech Inc., Waltham, Mass.), and 1% penicillin/streptomycin (Mediatech Inc., Waltham, Mass.) for 24 hours. After the adapting period, cytokines (TNF-α and IL-1β) with or without MMI-0100 peptide or Rottlerin (Tocris Bioscience, Ellisville, Mo.; IC50=5 μM) were added to the media in order to compare the efficacy of MMI-0100 ([…]; SEQ ID NO: 1) with that of Rottlerin. Specifically, serum-starved mesothelial cells were treated with two different concentrations (1000 μM or 3000 μM) of MMI-0100 ([…] (SEQ ID NO: 1)) at three different time points (6 hours, 12 hours, and 24 hours) using two different concentrations of TNF-α (1 ng/ml or 10 ng/ml) or using 1 ng/ml of IL-1β. Average concentration of IL-6 (pg/ml per 10^5 cells) at each time was determined by cytokine-specific ELISA.

[2] = tested on: human saphenous vein (HSV); experiment: Sodium nitroprusside-induced relaxation of human saphenous vein in muscle bath; settings: control peptide 50 or 100 μM; data not shown
Description: In preparation for testing vein segment functional viability, HSV rings were weighed and their lengths recorded. To focus on smooth muscle responses, the endothelium was mechanically denuded by rolling the luminal surface of each ring at the tip of a fine vascular forceps before suspension in a muscle bath containing a bicarbonate buffer (120 mM NaCl, 4.7 mM KCl, 1.0 mM MgSO4, 1.0 mM NaH2PO4, 10 mM glucose, 1.5 mM CaCl2, and 25 mM […], pH 7.4) equilibrated with 95% O2 and 5% CO2 at 37° C. The rings were stretched and the length progressively adjusted until maximal tension was obtained. Normalized reactivity was obtained by determining the passive length-tension relationship for each vessel segment. Rings were maintained at a resting tension of 1 g, which produces maximal responses to contractile agonists as previously determined, and equilibrated for 2 hours in buffer. Force measurements were obtained using a Radnoti Glass Technology (Monrovia, Calif.) force transducer (159901A) interfaced with a Powerlab data acquisition system and Chart software (AD Instruments, Colorado Springs, Colo.).
HSV rings were first contracted with 110 mM KCl (with equimolar replacement of NaCl in bicarbonate buffer) and the generated force was measured. 110 mM KCl causes membrane depolarization, leading to contraction of vessels containing functionally viable smooth muscle. After multiple KCl challenges, rings were washed and allowed to equilibrate in bicarbonate solution for 30 min, and then contracted with phenylephrine (PE, 10^−7-10^−6 M). Rings were relaxed with a cumulative log dose of sodium nitroprusside (SNP), a nitric oxide donor, and the force generated was recorded. All rings were again washed and equilibrated in buffer for 15 minutes. Rings were then incubated with either buffer alone or buffer plus 100 μM of MMI-0100 ([…] (SEQ ID NO: 1)) for 2 hours, followed by treatment with the same doses of PE and SNP, and the forces generated again recorded. Measured force was normalized for ring weight and length and percent relaxation was calculated; force generated with 10^−6M of PE was set as 0% relaxation.
The enhancing effect of MMI-0100 ([…]; SEQ ID NO: 1) on smooth muscle relaxation was examined by pre-treating harvested human saphenous vein (HSV) with MMI-0100 ([…]; SEQ ID NO: 1) before SNP treatment. Segments of human saphenous vein (HSV) were equilibrated in a muscle bath and pretreated with a control solution (0.01M phosphate-buffered solution, PBS) or MMI-0100 ([…] (SEQ ID NO: 1); 30 μM, 2 hrs), contracted with norepinephrine. and relaxed with increasing doses of sodium nitroprusside (SNP, 0-1 μM). Percentage of relaxation at 0, 0.01, 0.1, and 1.0 μM of SNP was measured. […]

CC(=O)c1c(O)c(C)c(O)c(Cc2c(O)c3c(c(C(=O)/C=C/c4ccccc4)c2O)OC(C)(C)C=C3)c1O [Rottlerin, reference compound]
IL-6 expression compared with TNF-α alone ([1]; 1 ng/mL TNF-α, 6 hrs, Rottlerin): significantly increased
IL-6 expression ([1]; 1 ng/mL TNF-α, Rottlerin): ineffective
IL-6 expression ([1]; 10 ng/mL TNF-α, Rottlerin 1 μM, twenty-four hours): reduced IL-6 expression

YARAAARQARA (mammal) [PTD peptide, control peptide (transduction domain, PTD peptide), reference compound]
relaxation response compared to untreated control [2]: no significant difference
